According to PMC9331182, “Characterization of a novel recombinant halophilic β-glucosidase of Trichoderma harzianum derived from Hainan mangrove” (BMC Microbiology, 2022):

Tested on: T1, Bgl3HB
T1 construct: pPICZalphaA (alpha-factor secretion) in Komagataella phaffii X33; by primers starts MVNNAA and ends QIQDATP plus C-terminal His6; GH3, GH3-C and Fn3-like domains
Assay: pNP release, OD400, Lineweaver-Burk
Assay type: biochemical, Trichoderma harzianum
Conditions: pH 4.0, 50 °C, 10 min
Description: pNP release, OD400, Lineweaver-Burk on Bgl3HB

- Km: 1220 µM
Compound: O=[N+]([O-])c1ccc(O[C@@H]2O[C@H](CO)[C@@H](O)[C@H](O)[C@H]2O)cc1 [pNPG]
